Here are results for 13 molecules from ChEMBL document CHEMBL3045210, “Inhibition of trans-Cinnamate 4-Hydroxylase by 4-Amino-5-aryl-2,3-dihydro-3H-1,2,4-triazole-3-thiones” (J Pestic Sci, 2005).

Active and inactive are the calls of the source. The calls are words filed in the database; no cut-off is given here. A value given as a limit tells only on which side of the number the result lay.

A word on the IC50: it is the concentration that inhibits the measured activity by half.

The first assay has as its system Solanum tuberosum. As to the kind of experiment: Induction of accumulation of trans-cinnamic acid in Solanum tuberosum (potato) tubers at 0.02 to 20 ng/disk after 24 hr relative to laminarin. It is filed as functional.
On to `Nn1c(S)nnc1-c1ccccc1`, for which the “fold change (FC)” value is 3.

The target in the next assay is T1, Trans-cinnamate 4-monooxygenase (Populus kitakamiensis) (UniProt Q43054).
T1 sequence (whole entry): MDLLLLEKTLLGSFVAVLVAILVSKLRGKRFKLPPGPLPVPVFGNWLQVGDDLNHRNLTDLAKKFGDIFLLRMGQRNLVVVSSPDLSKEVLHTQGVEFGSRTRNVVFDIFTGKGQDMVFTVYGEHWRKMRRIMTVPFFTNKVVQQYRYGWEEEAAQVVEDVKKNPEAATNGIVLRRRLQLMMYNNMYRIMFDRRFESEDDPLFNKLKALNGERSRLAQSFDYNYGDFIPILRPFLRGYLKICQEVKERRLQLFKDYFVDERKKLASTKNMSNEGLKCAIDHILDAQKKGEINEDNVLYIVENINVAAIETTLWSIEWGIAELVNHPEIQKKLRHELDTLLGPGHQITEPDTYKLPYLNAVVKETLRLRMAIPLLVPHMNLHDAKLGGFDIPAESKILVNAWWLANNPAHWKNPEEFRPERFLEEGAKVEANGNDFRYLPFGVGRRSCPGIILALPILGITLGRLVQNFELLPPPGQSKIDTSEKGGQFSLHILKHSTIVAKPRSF
Description: Mixed-type inhibition of Populus sieboldii x Populus grandidentata trans-cinnamate 4-hydroxylase by Lineweaver-Burk plot analysis.
Turning to `Nn1c(S)nnc1-c1ccccc1`, the inhibition result is “Active”.

Another assay concerns the target T2, Trans-cinnamate 4-monooxygenase (Populus kitakamiensis, UniProt Q43054).
T2 sequence (Q43054 whole entry): T1 sequence (whole entry)
Description: Inhibition of Populus sieboldii x Populus grandidentata trans-cinnamate 4-hydroxylase assessed as p-coumaric acid level.
Regarding `Nn1c(-c2ccncc2)n[nH]c1=S`, the half-inhibitory concentration (IC50) came out at 13 µM.
For `Nn1c(-c2cccc(F)c2)n[nH]c1=S`, the half-inhibitory concentration (IC50) was determined as 3.9 µM.
The same measure, in the same setting: the value for `Nn1c(-c2ccc(Cl)cc2)n[nH]c1=S` was more than 100 µM; that for `Nn1c(-c2ccccn2)n[nH]c1=S` was 45 µM; that for `Cc1cccc(-c2n[nH]c(=S)n2N)c1` was 3.6 µM.
Regarding `Nn1c(-c2ccc(O)cc2)n[nH]c1=S`, the IC50 is more than 100 µM.
With `Nn1c(S)nnc1-c1ccco1`, the half-inhibitory concentration (IC50) was more than 100 µM.
Consider `Nn1c(-c2cccc(Cl)c2)n[nH]c1=S`, for which the IC50 is 5 µM.
With `Nn1c(-c2cccnc2)n[nH]c1=S`, the IC50 is 51 µM.
With `Nn1c(-c2ccccc2Cl)n[nH]c1=S`, the IC50 was more than 100 µM.
Same read-out and setting: the value for `Nn1c(S)nnc1-c1ccccc1` was 0.32 µM.
The same measure, in the same setting: the value for `Nn1c(-c2cccs2)n[nH]c1=S` was 45 µM.
For the molecule `Cc1ccc(-c2n[nH]c(=S)n2N)cc1`, the half-maximal inhibitory concentration (IC50) is more than 100 µM.
